# Test results taken from publication PMC5118688 (Scientific Reports, 2016).
# Read-outs that look alike come from different tables or passages of the source.
# Legend:
# [1] = test system: mAb against a generic hapten (3-(4-dimethoxyphosphorothioyloxy phenyl)propanoic acid); conditions: ref Liu et al. 10; cited from earlier work
# [2] = ref Liang et al. 9; cited from earlier work
# [3] = ref Hua et al. 11; cited from earlier work
# mAb3C9 [4] = assay: mimotope-based dcELISA (mAb3C9 and M20-GST-BAD/SA-HRP competitor); type: binding, mouse; conditions: for CR (%): M20-GST-BAD, (IC50 of parathion-methyl/IC50 of pesticide) × 100; for LOD (IC10): mAb3C9, M20-GST-BAD; for IC50 ± SD: mAb3C9, competitor M20-GST-BAD
# Description: To develop a mimotope-based dcELISA, the biotinylated mimotope fusion protein was firstly assembled with streptavidin-HRP conjugate (SA-HRP) utilized the high affinity of biotin and streptavidin. The assembly process was just mixing a certain amount of biotinylated mimotope fusion protein with SA-HRP and incubating them at 4 °C overnight before use as an HRP-labeled competitor.
# An innovative mimotope-based dcELISA was developed and performed as below. […] TMB solution (100 μL/well) was added and incubated for 15 min at 37 °C.
# The optimal condition for mimotope-based dcELISA was optimized as chemosynthesized antigen-based dcELISA. The selectivity and sensitivity of the developed mimotope-based dcELISA for the 24 OPs were also determined under the optimum condition.
# mAb3C9 [5] = assay: optimized chemosynthesized antigen-based dcELISA (mAb3C9 and hapten 6-OVA); conditions: for CR (%): Hapten 6-OVA, (IC50 of parathion-methyl/IC50 of pesticide) × 100; for LOD (IC10): mAb3C9, Hapten 6-OVA; for IC50 ± SD: mAb3C9, coating antigen Hapten 6-OVA
# Description: (§1) The dcELISA procedure was performed as below. First, the plate (Costar, Corning Inc., New York, USA) was coated with coating antigen (100 μL/well in 1 × PBS) for 1 h at 37 °C. Then, the wells were washed four times with PBST (1 × PBS with 0.05% (v/v) Tween-20) and blocked with 2% skim milk (200 μL/well) for 1 h at 37 °C. After washing four times, 50 μL analyte in MeOH-water solution and 50 μL mAb-HRP in PBS were added. The plate was incubated for 1 h at 37 °C and then washed four times before adding TMB solution (100 μL/well). After incubation for 15 min at 37 °C, 50 μL/well of H2SO4 (2 mol/L) was added to stop the reaction, and the absorbance was recorded at 450 nm using the Model 680 plate reader (Bio-Rad, USA).
# (§2) 18 kinds of O,O-dimethyl OPs and 6 kinds of O,O-diethyl OPs were purchased from National Standards of China and used for the selectivity and sensitivity study using the optimized dcELISA procedure. […] The IC50 value and detection limit of each OP were calculated. The CR value, which was used to evaluate the selectivity of the method, was calculated using the following equation:
# mAb4D11 = assay: optimized mAb4D11-based dcELISA; conditions: mAb4D11-based dcELISA
# Description: as §1, §2
Compound,IC50 [1],IC50 [2],IC50 [3],CR (%) (mAb3C9 [4]),LOD (IC10) (mAb3C9 [4]),IC50 ± SD (mAb3C9 [4]),CR (%) (mAb3C9 [5]),LOD (IC10) (mAb3C9 [5]),IC50 ± SD (mAb3C9 [5]),CR (%) (mAb4D11),IC50 (mAb4D11),LOD (mAb4D11)
CCOC(=O)CC(SP(=S)(OC)OC)C(=O)OCC (stereo not shown) [Malathion],10470 ng/mL,30.1 ng/mL,> 100000 ng/mL,,,,,,,,,
COP(=S)(OC)Oc1nc(Cl)c(Cl)cc1Cl [Chlorpyrifos-methyl],810 ng/mL,,> 100000 ng/mL,122.8%,0.9 ng/mL,4.1 ± 0.2 ng/mL,120.7%,0.7 ng/mL,3.9 ± 0.1 ng/mL,59.4%,24.4 ng/mL,5.7 ng/mL
COP(=S)(OC)Oc1ccc([N+](=O)[O-])c(C)c1 [Fenitrothion],3540 ng/mL,324 ng/mL,8.9 ng/mL,104.1%,1.2 ng/mL,4.9 ± 0.2 ng/mL,107.1%,1.1 ng/mL,4.4 ± 0.3 ng/mL,180.2%,8.1 ng/mL,1.2 ng/mL
COP(=S)(OC)Oc1ccc([N+](=O)[O-])cc1 [Parathion-methyl],580 ng/mL,438.9 ng/mL,3.7 ng/mL,100.0%,0.9 ng/mL,5.1 ± 0.2 ng/mL,100.0%,0.9 ng/mL,4.7 ± 0.3 ng/mL,100.0%,14.5 ng/mL,2.0 ng/mL
COP(=S)(OC)Oc1ccc(SC)c(C)c1 [Fenthion],1210 ng/mL,788.9 ng/mL,> 100000 ng/mL,21.6%,4.4 ng/mL,23.4 ± 1.7 ng/mL,32.1%,3.0 ng/mL,14.5 ± 1.1 ng/mL,303.6%,4.8 ng/mL,0.9 ng/mL
COP(=S)(OC)Oc1c(Cl)cc(C)cc1Cl [Tolclofos-methyl],1100 ng/mL,,> 100000 ng/mL,61.3%,1.7 ng/mL,8.3 ± 0.4 ng/mL,70.2%,1.2 ng/mL,6.6 ± 0.3 ng/mL,46.2%,31.4 ng/mL,9.5 ng/mL
